Converted amounts (≈) assume the structure as drawn.
Assays:
[1] = system: AG003 E. coli AAC(3)-II; assay: Antibacterial activity, clinical isolate AG003; format: cell-based; design: unit not given here
From the text: (§1) Minimal inhibitory concentrations (MIC) have been determined by broth microdilution assays (CLSI. Methods for Dilution Antimicrobial Susceptibility Tests for Bacteria That Grow Aerobically; Approved Standard—Tenth Edition. CLSI document M07-A10. Wayne, Pa.: Clinical and Laboratory Standards Institute; 2015.).
(§2) Table 4 and 5 show the antibacterial activity of the compounds of the invention against bacterial reference strains (table 4) and against representative clinical isolates (table 5).

[2] = system: bacterial ribosomes; assay: in-vitro translation assay, bacterial ribosomes; format: biochemical
From the text: (§3) IC50 values for bacterial, human chimeric, and rabbit reticulocyte ribosomes have been determined by in-vitro translation assays as described previously (Proc. Nat. Ac. Sci USA 2012, 109(27):10984-10989).
(§4) Minimal inhibitory concentrations (MICs, […]) against clinical isolates from Institute of Medical Microbiology, Univ. Zurich, and the IC50 values for bacterial, human mitochondrial and human cytosolic ribosomes are indicated.

[3] = system: human cytosolic ribosomes; assay: in-vitro translation assay, human cytosolic ribosomes; format: biochemical
From the text: as §3, §4

[4] = system: AG163 E. coli APH(3′)-I; assay: Antibacterial activity, clinical isolate AG163; format: cell-based; design: unit not given here
From the text: as §1, §2

[5] = system: Engineered E. coli pH424 armA; assay: Activity against G1405-methylated 16S-rRNA, E. coli pH424 armA; format: cell-based
From the text: as §1

[6] = system: clinical isolates carrying APH(3′)-II; assay: MIC broth microdilution, APH(3′)-II; format: cell-based; settings: clinical isolates, IMM Univ. Zurich; APH(3′)-II; read-out: MIC APH(3′)-II
From the text: as §1, §4

[7] = system: AG032 P. aer. APH(3′)-II; assay: Antibacterial activity, clinical isolate AG032; format: cell-based; design: unit not given here
From the text: as §1, §2

[8] = system: AG173 E. coli AAC(3)-IV; assay: Antibacterial activity, clinical isolate AG173; format: cell-based
From the text: as §1, §2

[9] = system: human mitochondrial ribosomes; assay: in-vitro translation assay, human mitochondrial (human chimeric) ribosomes; format: biochemical
From the text: as §3, §4

[10] = system: clinical isolates carrying APH(3′)-I; assay: MIC broth microdilution, APH(3′)-I; format: cell-based; settings: IMM Univ. Zurich
From the text: as §1, §4

[11] = system: AG220, Pseudomonas aeruginosa ATCC27853; assay: MIC reference strain AG220; format: cell-based
From the text: as §1, §2
(§5) Legend to Tables: GEN, gentamicin; AMK, amikacin; PLZ, plazomicin; APR, apramycin; AG212, Escherichia coli ATCC25922; AG215, Klebsiella pneumonia; AG220, Pseudomonas aeruginosa ATCC27853; AG225, Acinetobacter baumannii pittii; AG290, Enterobacter cloacae; […], Mycobacterium smegmatis. MICs for AG192 have been determined in the presence of 0.5 μg/mL of ampicillin in the medium to mimic the synergistic effect of aminoglycoside and β-lactam antibiotics combination therapy in the treatment of Enterococcus infections in humans.

[12] = system: Engineered E. coli pH425 rmtB; assay: Activity against G1405-methylated 16S-rRNA, E. coli pH425 rmtB; format: cell-based
From the text: as §1

[13] = system: AG215, Klebsiella pneumonia; assay: MIC reference strain AG215; format: cell-based; settings: reference strain
From the text: as §1, §2, §5

[14] = system: AG038 MRSA; assay: Antibacterial activity, clinical isolate AG038; format: cell-based; design: unit not given here
From the text: as §1, §2

[15] = system: AG212, Escherichia coli ATCC25922; assay: MIC reference strain AG212; format: cell-based; settings: reference strain ATCC25922
From the text: as §1, §2, §5

[16] = system: AG033 P. aer. APH(3′)-II AAC(6′)-I; assay: Antibacterial activity, clinical isolate AG033; format: cell-based; design: unit not given here
From the text: as §1, §2

[17] = system: Engineered E. coli pH426 rmtC; assay: Activity against G1405-methylated 16S-rRNA, E. coli pH426 rmtC; format: cell-based
From the text: as §1

[18] = system: clinical isolates carrying APH(3′)-VI; assay: MIC broth microdilution, APH(3′)-VI; format: cell-based; settings: IMM Univ. Zurich
From the text: as §1, §4

[19] = system: Engineered E. coli pH427 rmtF; assay: Activity against G1405-methylated 16S-rRNA, E. coli pH427 rmtF; format: cell-based
From the text: as §1

[20] = system: Engineered E. coli pH430 WT; assay: Activity, engineered E. coli pH430 WT; format: cell-based; design: unit not given here; settings: wild type
From the text: as §1

[21] = system: AG042 MRSA AAC(6′)-I ANT(4′)-I APH(2′); assay: Antibacterial activity, clinical isolate AG042; format: cell-based; design: unit not given here
From the text: as §1, §2

[22] = system: AG055 E. coli WT; assay: Antibacterial activity, clinical isolate AG055; format: cell-based; design: unit not given here
From the text: as §1, §2

[23] = system: Engineered E. coli AG103 armA; assay: Activity against G1405-methylated 16S-rRNA, E. coli AG103 armA; format: cell-based
From the text: as §1

[24] = system: clinical isolates carrying AAC(3)-IV; assay: MIC broth microdilution, AAC(3)-IV; format: cell-based
From the text: as §1, §4
(§6) Minimal inhibitory concentrations (μg/ml) against clinical isolates from Institute of Medical Microbiology, Univ. Zurich, and the IC50 values for bacterial, human mitochondrial and human cytosolic ribosomes are indicated.
(§7) The Minimal inhibitory concentrations (MICs, μg/ml) against clinical isolates from Institute of Medical Microbiology, Univ Zurich, and the IC50 values for bacterial, human mitochondrial and human cytosolic ribosomes are indicated.

[25] = system: AG225, Acinetobacter baumannii pittii; assay: MIC reference strain AG225; format: cell-based; settings: reference strain
From the text: as §1, §2, §5

[26] = system: ATCC19977 M. abcessus; assay: MIC reference strain ATCC19977; format: cell-based
From the text: as §1, §2

[27] = system: AG001 E. coli WT; assay: Antibacterial activity, clinical isolate AG001; format: cell-based; design: unit not given here
From the text: as §1, §2

[28] = system: AG039 MRSA AAC(6′)-I ANT(4′)-I; assay: Antibacterial activity, clinical isolate AG039; format: cell-based
From the text: as §1, §2

[29] = system: AG290, Enterobacter cloacae; assay: MIC reference strain AG290; format: cell-based; settings: reference strain
From the text: as §1, §2, §5

[30] = system: AG031 P. aer. APH(3′)-II; assay: Antibacterial activity, clinical isolate AG031; format: cell-based; design: unit not given here
From the text: as §1, §2

[31] = system: K. pneum. AG269 AAC(3)-II AAC(6′)-I rmtB; assay: Activity against G1405-methylated 16S-rRNA, clinical isolate AG269; format: cell-based
From the text: as §1

[32] = system: isolates carrying apmA; assay: MIC broth microdilution, apmA; format: cell-based; settings: apmA resistance gene
From the text: as §1, with “2015.). […]” for “2015.).”
as §6, §7

[33] = system: E. coli AG153 AAC(3)-II APH(3′)-II rmtB; assay: Activity against G1405-methylated 16S-rRNA, clinical isolate AG153; format: cell-based; design: unit not given here
From the text: as §1

[34] = system: WT clinical isolates; assay: MIC broth microdilution, WT; format: cell-based; settings: clinical isolates, IMM Univ. Zurich; wild type
From the text: as §1, §4, §6, §7

[35] = system: Enterob. AG302 AAC(3)-II AAC(6′)-I rmtC; assay: Activity against G1405-methylated 16S-rRNA, clinical isolate AG302; format: cell-based
From the text: as §1

[36] = system: SZ380, Mycobacterium smegmatis; assay: MIC reference strain SZ380; format: cell-based; settings: reference strain
From the text: as §1, §2, §5

[37] = system: A baum. AG227 APH(3′)-I armA; assay: Activity against G1405-methylated 16S-rRNA, clinical isolate AG227; format: cell-based
From the text: as §1

| SMILES | Antibacterial activity AG003 E. coli AAC(3)-II [1] | IC50 [2] [µM] | IC50 [3] [µM] | Antibacterial activity AG163 E. coli APH(3′)-I [4] | Activity E. coli pH424 armA [5] | Antibacterial activity AG032 P. aer. APH(3′)-II [7] | Antibacterial activity AG173 E. coli AAC(3)-IV [8] | IC50 [9] [µM] | Activity E. coli pH425 rmtB [12] | Antibacterial activity AG038 MRSA [14] | Antibacterial activity AG033 P. aer. APH(3′)-II AAC(6′)-I [16] | Activity E. coli pH426 rmtC [17] | Activity E. coli pH427 rmtF [19] | Activity E. coli pH430 WT [20] | Antibacterial activity AG042 MRSA AAC(6′)-I ANT(4′)-I APH(2′) [21] | Antibacterial activity AG055 E. coli WT [22] | Activity E. coli AG103 armA [23] | Antibacterial activity AG001 E. coli WT [27] | Antibacterial activity AG039 MRSA AAC(6′)-I ANT(4′)-I [28] | Antibacterial activity AG031 P. aer. APH(3′)-II [30] | other results |
| --- | --- | --- | --- | --- | --- | --- | --- | --- | --- | --- | --- | --- | --- | --- | --- | --- | --- | --- | --- | --- | --- |
| CNC1C(OC2OC(CO)C(N)C(O)C2O)OC2CC(N)C(OC3C(N)CC(N)C(O)C3OC3OC(CO)C(O)C3O)OC2C1O [DC131, 5-O—(β-D-Ribefuranosyl) apramycin] | 16 | 0.11 | 319 | 8-16 | 2 | 64-128 | 16-32 | 295 | 4 | 64 | 128 | 4 | 4 | 4 | 64 | 16-32 | 1 | 16 | 64 | 64-128 | MIC [6]: 8 µg/mL (≈ 11.9 µM); MIC [10]: 64 µg/mL (≈ 95.3 µM); MIC ([11]; Pseudomonas aeruginosa, ATCC27853, reference strain ATCC27853, read-out: MIC AG220 P. aeruginosa): 64 µg/mL; MIC ([13]; Klebsiella pneumoniae, read-out: MIC AG215 K. pneumonia): 2 µg/mL; MIC ([15]; Escherichia coli, read-out: MIC AG212 E. coli): 8 µg/mL; MIC [18]: 4 µg/mL (≈ 5.96 µM); activity against the IMM clinical isolates carrying the gene for AAC(3)-IV [24]: no activity; MIC ([24]; clinical isolates, IMM Univ. Zurich, AAC(3)-IV, read-out: MIC AAC(3)-IV): > 32 µg/mL; MIC ([25]; Acinetobacter baumannii, read-out: MIC AG225 A. baumannii): 16 µg/mL; MIC ([26]; read-out: MIC ATCC19977 M. abcessus): 16 µg/mL (≈ 23.8 µM); MIC ([29]; Enterobacter cloacae, read-out: MIC AG290 E. cloacae): 4 µg/mL |
| CNC1C(OC2OC(CO)C(N)C(O)C2O)OC2CC(N)C(OC3C(N)CC(NC(=O)C(O)CCN)C(O)C3O)OC2C1O (centres unmarked) [DC176] | 4 | 0.11 | 326 | 4 | 2 | 32 | 2-4 | 166 | 2 | 4-8 | >32 | 4 | 4 | 2 | 8 | 8 | 0.25-0.5 | 4 | 4-8 | 16 | Activity K. pneum. AG269 AAC(3)-II AAC(6′)-I rmtB [31]: 2; MIC apmA [32]: 16 µg/mL (≈ 25 µM); MIC AG220 P. aeruginosa ([11]; reference strain ATCC27853): 16 µg/mL; Activity E. coli AG153 AAC(3)-II APH(3′)-II rmtB [33]: 4; MIC AG215 K. pneumonia [13]: 2 µg/mL; MIC AG212 E. coli [15]: 2 to 4 µg/mL; MIC WT [34]: 2 µg/mL (≈ 3.12 µM); Activity Enterob. AG302 AAC(3)-II AAC(6′)-I rmtC [35]: 2; MIC SZ380 M. smegmatis [36]: 0.5 µg/mL; MIC AAC(3)-IV ([24]; clinical isolates, IMM Univ. Zurich, AAC(3)-IV): 4 µg/mL (≈ 6.24 µM); MIC AG225 A. baumannii [25]: 8 µg/mL; MIC ATCC19977 M. abcessus ([26]; reference strain): 2 µg/mL (≈ 3.12 µM); MIC AG290 E. cloacae [29]: 4 µg/mL; Activity A baum. AG227 APH(3′)-I armA [37]: 2 |

Reference: patent US11485751B2, “Apramycin derivatives” (WAYNE STATE UNIVERSITY, priority 2017, dated 2022)
